Reference: PubChem BioAssay AID248 (DTP/NCI, 2004)
Where “and” joins values, the source holds several entries; their conditions need not be identical. Equal entries are not always repeated. Toxic doses and inconclusive results are not listed. Cut-off read from the data, not from the text of the source: active = T/C of 150% or more; inactive = T/C below 125%.

Test system: L1210 leukemia ip in BDF1 mice, survival T/C
Assay: NCI In Vivo Anticancer Drug Screen. Data for tumor model L1210 Leukemia (intraperitoneal) in B6D2F1 (BDF1) mice
Conditions: endpoint: mean survival time, higher = longer survival
Procedure, shortened: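 Mice bearing the transplanted tumor received compound or vehicle. Survival of the treated group was divided by that of the vehicle-treated control group to give the ratio.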

[1] = dose: 100.0 mg/kg/injection, schedule: Q04DX003 (ip), vehicle: Klucel (hydroxypropylcellulose) (HPC)
[2] = dose: 200.0 mg/kg/injection, schedule: Q04DX003 (ip), vehicle: Klucel (hydroxypropylcellulose) (HPC)
[3] = dose: 400.0 mg/kg/injection, schedule: Q04DX003 (ip), vehicle: Klucel (hydroxypropylcellulose) (HPC)
[4] = dose: 100.0 mg/kg/injection, schedule: Q01DX009 (ip), vehicle: Klucel (hydroxypropylcellulose) (HPC)
[5] = dose: 400.0 mg/kg/injection, schedule: Q01DX009 (ip), vehicle: Klucel (hydroxypropylcellulose) (HPC)
[6] = dose: 100.0 mg/kg/injection, schedule: Q01DX001 (ip), vehicle: saline with Tween-80
[7] = dose: 200.0 mg/kg/injection, schedule: Q01DX001 (ip), vehicle: saline with Tween-80
[8] = dose: 400.0 mg/kg/injection, schedule: Q01DX001 (ip), vehicle: saline with Tween-80
[9] = dose: 200.0 mg/kg/injection, schedule: Q01DX009 (ip), vehicle: Klucel (hydroxypropylcellulose) (HPC)
[10] = dose: 50.0 mg/kg/injection, schedule: Q01DX009 (ip), vehicle: Klucel (hydroxypropylcellulose) (HPC)
[11] = dose: 100.0 mg/kg/injection, schedule: Q04DX003 (ip), vehicle: saline
[12] = dose: 200.0 mg/kg/injection, schedule: Q04DX003 (ip), vehicle: saline
[13] = dose: 100.0 mg/kg/injection, schedule: Q04DX002 (ip), vehicle: Klucel (hydroxypropylcellulose) (HPC)
[14] = dose: 200.0 mg/kg/injection, schedule: Q04DX002 (ip), vehicle: Klucel (hydroxypropylcellulose) (HPC)
[15] = dose: 400.0 mg/kg/injection, schedule: Q04DX002 (ip), vehicle: Klucel (hydroxypropylcellulose) (HPC)

Measured: T/C

CC(C)=NOC(N)=O
inactive: dose: 50.0 mg/kg/injection, schedule: Q01DX Z (ip), vehicle: water 108 % of control | dose: 100.0 mg/kg/injection, schedule: Q01DX Z (ip), vehicle: water 100 % of control | dose: 200.0 mg/kg/injection, schedule: Q01DX Z (ip), vehicle: water 100 % of control | dose: 400.0 mg/kg/injection, schedule: Q01DX Z (ip), vehicle: water 100 % of control

COc1cccc(C)c1[N+](=O)[O-]
inactive: [1] 94 % of control | [2] 97 % of control | [3] 105 % of control

CC(=O)OCC1OC(n2cnc3c(F)nc(F)nc32)C(OC(C)=O)C1OC(C)=O (stereo not drawn)
inactive: dose: 100.0 mg/kg/injection, schedule: Q01DX001 (sc), vehicle: olive oil, sesame oil, peanut oil 104 % of control | dose: 200.0 mg/kg/injection, schedule: Q01DX001 (sc), vehicle: olive oil, sesame oil, peanut oil 104 % of control | dose: 400.0 mg/kg/injection, schedule: Q01DX001 (sc), vehicle: olive oil, sesame oil, peanut oil 100 % of control

COC(=O)CCNc1c(OC)ccc2ccccc12
inactive: [4] 101 % of control | [5] 98 % of control

CCOC(=O)C1=C(C)NC(C)=C(C(C)=O)C1c1ccnc2ccccc12 (stereo not drawn)
inactive: dose: 100.0 mg/kg/injection, schedule: Q01DX009 (ip), vehicle: saline with Tween-80 98 % of control | dose: 100.0 mg/kg/injection, schedule: Q04DX003 (ip), vehicle: saline with Tween-80 95 % of control | dose: 200.0 mg/kg/injection, schedule: Q01DX009 (ip), vehicle: saline with Tween-80 102 % of control | dose: 200.0 mg/kg/injection, schedule: Q04DX003 (ip), vehicle: saline with Tween-80 92 % of control | dose: 400.0 mg/kg/injection, schedule: Q01DX009 (ip), vehicle: saline with Tween-80 100 % of control | dose: 400.0 mg/kg/injection, schedule: Q04DX003 (ip), vehicle: saline with Tween-80 100 % of control

Cc1nc2nc3c(ncn3C3OC(CO)C(O)C3O)c(=O)n2nc1C (stereo not drawn)
inactive: dose: 100.0 mg/kg/injection, schedule: Q01DX005 (ip), vehicle: saline 102 % of control | dose: 200.0 mg/kg/injection, schedule: Q01DX005 (ip), vehicle: saline 92 % of control

CC(=O)NC1C(OC(=O)c2ccccc2)OC(CO)C(O)C1OC(=O)c1ccccc1 (stereo not drawn)
inactive: [6] 101 % of control | [7] 105 % of control | [8] 94 % of control

CCN(CC)C(=O)N1CCN(C)CC1
inactive: [4] 101 % of control | [1] 94 % of control | [9] 106 % of control | [2] 98 % of control | [5] 104 % of control | [3] 96 % of control

CC(C)(c1cc(Br)sc1Br)c1cc(Br)sc1Br
inactive: [10] 95 % of control | [4] 98 % of control | dose: 100.0 mg/kg/injection, schedule: Q04DX003 (ip), vehicle: acetone 106 % of control | [9] 101 % of control | dose: 200.0 mg/kg/injection, schedule: Q04DX003 (ip), vehicle: acetone 117 % of control | dose: 400.0 mg/kg/injection, schedule: Q04DX003 (ip), vehicle: acetone 104 % of control

CC(C)CN(CC(C)C)/N=C/c1cc([N+](=O)[O-])ccc1O
inactive: dose: 100.0 mg/kg/injection, schedule: Q04DX002 (ip), vehicle: saline with Tween-80 97 % of control | dose: 200.0 mg/kg/injection, schedule: Q04DX002 (ip), vehicle: saline with Tween-80 91 % of control | dose: 400.0 mg/kg/injection, schedule: Q04DX002 (ip), vehicle: saline with Tween-80 87 % of control

CCN(CC)C(=O)c1cncc(-c2ccccc2)c1
inactive: dose: 100.0 mg/kg/injection, schedule: Q01DX001 (ip), vehicle: Klucel (hydroxypropylcellulose) (HPC) 97 % of control | dose: 200.0 mg/kg/injection, schedule: Q01DX001 (ip), vehicle: Klucel (hydroxypropylcellulose) (HPC) 98 % of control

CC(=O)OC12CCC34CCC5(CCC(OC(C)=O)(O1)C5C32)O4 (stereo not drawn)
inactive: [6] 105 % of control | [7] 98 % of control | [8] 98 % of control

OC(CCN1CCCCC1)(c1ccccc1)C1CC2C=CC1C2 (stereo not drawn)
inactive: dose: 6.25 mg/kg/injection, schedule: Q01DX009 (ip), vehicle: Klucel (hydroxypropylcellulose) (HPC) 106 % of control | dose: 12.5 mg/kg/injection, schedule: Q01DX009 (ip), vehicle: Klucel (hydroxypropylcellulose) (HPC) 105 % of control | dose: 25.0 mg/kg/injection, schedule: Q01DX009 (ip), vehicle: Klucel (hydroxypropylcellulose) (HPC) 100 % of control | dose: 25.0 mg/kg/injection, schedule: Q04DX003 (ip), vehicle: Klucel (hydroxypropylcellulose) (HPC) 106 % of control | [10] 105 % of control | dose: 50.0 mg/kg/injection, schedule: Q04DX003 (ip), vehicle: Klucel (hydroxypropylcellulose) (HPC) 97 % of control | [4] 103 % of control | [1] 95 % of control

COc1ccc(NC(=O)NCc2ccccc2Cl)c(OC)c1
inactive: [4] 102 % of control | [9] 96 % of control | [5] 98 % of control

O=C(Nc1ccccc1)OC1CC=CC1
inactive: [11] 90 % of control | [12] 92 % of control | dose: 400.0 mg/kg/injection, schedule: Q04DX003 (ip), vehicle: saline 103 % of control

CCCNCCCN
inactive: dose: 25.0 mg/kg/injection, schedule: Q01DX009 (ip), vehicle: saline 100 % of control | dose: 25.0 mg/kg/injection, schedule: Q04DX003 (ip), vehicle: saline 93 % of control | dose: 50.0 mg/kg/injection, schedule: Q01DX009 (ip), vehicle: saline 105 % of control | dose: 50.0 mg/kg/injection, schedule: Q04DX003 (ip), vehicle: saline 101 % of control | [11] 94 % of control and 102 % of control | [12] 88 % of control

O=C(c1ccccc1)C(c1ccccc1)(c1ccccc1)c1ccccc1
inactive: dose: 50.0 mg/kg/injection, schedule: Q01DX001 (ip), vehicle: carboxymethylcellulose (CMC) 90 % of control | dose: 100.0 mg/kg/injection, schedule: Q01DX001 (ip), vehicle: carboxymethylcellulose (CMC) 95 % of control | [13] 97 % of control | dose: 200.0 mg/kg/injection, schedule: Q01DX001 (ip), vehicle: carboxymethylcellulose (CMC) 108 % of control | [14] 94 % of control | dose: 400.0 mg/kg/injection, schedule: Q01DX001 (ip), vehicle: carboxymethylcellulose (CMC) 123 % of control | [15] 97 % of control

COC1OC(COS(=O)(=O)c2ccc(C)cc2)C(OC(=O)c2ccccc2)C(OC(=O)c2ccccc2)C1OS(=O)(=O)c1ccc(C)cc1 (stereo not drawn)
inactive: dose: 25.0 mg/kg/injection, schedule: Q04DX002 (ip), vehicle: Klucel (hydroxypropylcellulose) (HPC) 88 % of control | dose: 50.0 mg/kg/injection, schedule: Q04DX002 (ip), vehicle: Klucel (hydroxypropylcellulose) (HPC) 95 % of control | [13] 88 % of control | [14] 109 % of control and 88 % of control | [15] 109 % of control

CC(NC(=O)c1ccccc1)C(=O)O (stereo not drawn)
inactive: [10] 110 % of control | [4] 91 % of control | [13] 90 % of control | [14] 108 % of control | [15] 93 % of control

CCN(CC)CN1C(=O)C(=O)c2ccccc21
inactive: dose: 100.0 mg/kg/injection, schedule: Q01DX001 (ip), vehicle: steriod suspending solution 92 % of control | dose: 200.0 mg/kg/injection, schedule: Q01DX001 (ip), vehicle: steriod suspending solution 108 % of control | dose: 400.0 mg/kg/injection, schedule: Q01DX001 (ip), vehicle: steriod suspending solution 114 % of control
